Test results: patent US12478066B2, “Pesticidal mixtures” (BASF SE, priority 2019, dated 2025)

Assays:
Format in all cases: cell-based
Leptosphaeria nodorum = test: Microtest: activity against wheat leaf spots caused by Leptosphaeria nodorum (LEPTNO); details: 7 days after inoculation
Experimental: (§1) The active compounds were formulated separately as a stock solution having a concentration of 10000 ppm in dimethyl sulfoxide.
(§2) The stock solutions were mixed according to the ratio, pipetted onto a micro titer plate (MTP) and diluted with water to the stated concentrations. A spore suspension of Leptosphaeria nodorum in an aqueous biomalt or yeast-bactopeptone-glycerine or DOB solution was then added. The plates were placed in a water vapor-saturated chamber at a temperature of 18° C. Using an absorption photometer, the MTPs were measured at 405 nm 7 days after the inoculation.
(§3) The measured parameters were compared to the growth of the active compound-free control variant (100%) and the fungus-free blank value to determine the relative growth in % of the pathogens in the respective active compounds.
(§4) These percentages were converted into efficacies.
(§5) An efficacy of 0 means that the growth level of the pathogens corresponds to that of the untreated control; an efficacy of 100 means that the pathogens were not growing.
(§6) The expected efficacies of active compound mixtures were determined using Colby's formula [R. S. Colby, “Calculating synergistic and antagonistic responses of herbicide combinations”, Weeds 15, 20-22 (1967)] and compared with the observed efficacies.

Microdochium nivale = test: Microtest: activity against Microdochium nivale (MONGNI); details: 7 days after inoculation
Experimental: as §1
as §2, with “Microdochium nivale” for “Leptosphaeria nodorum”
as §3, §4, §5, §6

[1] = tested on: Qoi resistant isolate of Pyrenophora teres; test: Microtiter test: activity against net blotch Pyrenophora teres on barley (PYRNTE), Qoi resistant isolate; details: 0.063 ppm, 7 days after inoculation
Experimental: as §1
as §2, with “a Qoi resistant isolate of Pyrenophora teres” for “Leptosphaeria nodorum”
as §3, §4, §5, §6

[2] = tested on: Qoi resistant isolate of Septoria tritici; test: Microtest: activity against leaf blotch on wheat caused by Septoria tritici (SEPTTR), Qoi resistant isolate; details: 7 days after inoculation
Experimental: as §1
as §2, with “a Qoi resistant isolate of Septoria tritici” for “Leptosphaeria nodorum”
as §3, §4, §5, §6

Rhynchosporium secalis = test: Microtest: activity against Rhynchosporium secalis (RHYNSE); details: 7 days after inoculation
Experimental: as §1
as §2, with “Rhynchosporium secalis” for “Leptosphaeria nodorum”
as §3, §4, §5, §6

| Compound | Observed efficacy (Leptosphaeria nodorum; 0.004 ppm) | Observed efficacy (Microdochium nivale; 0.004 ppm) | Observed efficacy (Microdochium nivale; 0.016 ppm) | Observed efficacy (Microdochium nivale; 0.063 ppm) | Observed efficacy [1] | Observed efficacy ([2]; 0.016 ppm) | Observed efficacy ([2]; 0.063 ppm) | Observed efficacy (Rhynchosporium secalis; 0.063 ppm) | Observed efficacy (Leptosphaeria nodorum; 0.016 ppm) | Observed efficacy ([2]; 0.004 ppm) | Observed efficacy (Rhynchosporium secalis; 0.016 ppm) |
| --- | --- | --- | --- | --- | --- | --- | --- | --- | --- | --- | --- |
| COc1ccnc(C(=O)N[C@@H](C)C(=O)O[C@@H](C)C(c2ccc(F)cc2)c2ccc(F)cc2)c1OC(C)=O [Florylpicoxamid, [(1S)-2,2-bis(4-fluorophenyl)-1-methyl-ethyl] (2S)-2-[(3-acetoxy-4-methoxy-pyridine-2-carbonyl)amino]propanoate] | 13 | 3 | 18 | 44 | 9 | 0 | 12 | 55 |  |  |  |
| Cc1cccc(-n2nnn(C)c2=O)c1COc1ccn(-c2ccc(Cl)cc2)n1 [Metyltetraprol, 1-[2-[[1-(4-chlorophenyl)pyrazol-3-yl]oxymethyl]-3-methyl-phenyl]-4-methyl-tetrazol-5-one] |  | 1 | 32 |  | 11 | 0 | 1 |  | 49 | 1 | 14 |
